# Results taken from ChEMBL document CHEMBL1201862, “PubChem BioAssay data set” (2004).
# Activity calls are given as the source filed them.
# Legend:
# [1] = molecular target: T1, Low molecular weight phosphotyrosine protein phosphatase (Homo sapiens, UniProt P24666); assay type: functional; details: read-out: IC50_Mean;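 note: Dose-response confirmation assay measuring inhibition of LMPTP enzyme activity by fluorescence intensity read-out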
# T1 sequence (P24666 whole entry): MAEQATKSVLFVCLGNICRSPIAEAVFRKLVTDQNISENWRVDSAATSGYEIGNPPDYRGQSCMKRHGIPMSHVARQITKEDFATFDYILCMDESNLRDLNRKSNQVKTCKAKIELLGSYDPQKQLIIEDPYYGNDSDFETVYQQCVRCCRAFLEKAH
# [2] = molecular target: DNA (cytosine-5)-methyltransferase 1 (Homo sapiens, UniProt P26358); assay: inhibition of DNA methylation by DNMT1 – biochemical, fluorescent molecular beacon, confirmation (AID 602386); assay type: functional
# [3] = molecular target: T2, Adenosylmethionine-8-amino-7-oxononanoate aminotransferase (Mycobacterium tuberculosis, UniProt P9WQ81); assay: Mycobacterium tuberculosis BioA enzyme inhibitor Measured in Biochemical System Using Plate Reader - 2163-02_Inhibitor_Dose_CherryPick_Activity.; assay type: functional, Mycobacterium tuberculosis UT205
# T2 sequence (P9WQ81 whole entry): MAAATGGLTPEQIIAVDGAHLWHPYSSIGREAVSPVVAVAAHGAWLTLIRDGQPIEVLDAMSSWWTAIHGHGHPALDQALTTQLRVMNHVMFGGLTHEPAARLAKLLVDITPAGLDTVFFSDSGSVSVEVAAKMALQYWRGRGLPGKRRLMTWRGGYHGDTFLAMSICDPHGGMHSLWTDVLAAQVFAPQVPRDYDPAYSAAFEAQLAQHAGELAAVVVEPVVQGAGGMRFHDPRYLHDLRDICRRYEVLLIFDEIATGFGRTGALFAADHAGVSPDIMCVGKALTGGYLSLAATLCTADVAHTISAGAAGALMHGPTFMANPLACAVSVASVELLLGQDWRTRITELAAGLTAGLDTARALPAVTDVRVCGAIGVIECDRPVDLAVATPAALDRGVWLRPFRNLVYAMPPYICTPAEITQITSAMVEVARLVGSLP
# [4] = molecular target: T3, Sentrin-specific protease 8 (Homo sapiens, UniProt Q96LD8); assay type: functional
# T3 sequence (Q96LD8 whole entry): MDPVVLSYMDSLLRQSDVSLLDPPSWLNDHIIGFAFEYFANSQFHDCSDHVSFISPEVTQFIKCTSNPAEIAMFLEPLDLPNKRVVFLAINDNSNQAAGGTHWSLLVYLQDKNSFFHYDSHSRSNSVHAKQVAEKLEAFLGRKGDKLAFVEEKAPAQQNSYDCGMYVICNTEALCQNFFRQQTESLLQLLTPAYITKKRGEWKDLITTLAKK
# [5] = molecular target: T3, Sentrin-specific protease 8; assay type: functional; remark: listed apart in the source
# [6] = molecular target: T4, Long-chain-fatty-acid--AMP ligase FadD28 (Mycobacterium tuberculosis, UniProt P9WQ59); assay: Fluorescence polarization aasay to screen for inhibitors that compete for the binding of FadD28 to a bisubstrate Measured in Biochemical System Using Plate Reader - 2147-01_Inhibitor_Dose_CherryPick_Activity.; assay type: functional, Mycobacterium tuberculosis H37Rv
# T4 sequence (P9WQ59 whole entry): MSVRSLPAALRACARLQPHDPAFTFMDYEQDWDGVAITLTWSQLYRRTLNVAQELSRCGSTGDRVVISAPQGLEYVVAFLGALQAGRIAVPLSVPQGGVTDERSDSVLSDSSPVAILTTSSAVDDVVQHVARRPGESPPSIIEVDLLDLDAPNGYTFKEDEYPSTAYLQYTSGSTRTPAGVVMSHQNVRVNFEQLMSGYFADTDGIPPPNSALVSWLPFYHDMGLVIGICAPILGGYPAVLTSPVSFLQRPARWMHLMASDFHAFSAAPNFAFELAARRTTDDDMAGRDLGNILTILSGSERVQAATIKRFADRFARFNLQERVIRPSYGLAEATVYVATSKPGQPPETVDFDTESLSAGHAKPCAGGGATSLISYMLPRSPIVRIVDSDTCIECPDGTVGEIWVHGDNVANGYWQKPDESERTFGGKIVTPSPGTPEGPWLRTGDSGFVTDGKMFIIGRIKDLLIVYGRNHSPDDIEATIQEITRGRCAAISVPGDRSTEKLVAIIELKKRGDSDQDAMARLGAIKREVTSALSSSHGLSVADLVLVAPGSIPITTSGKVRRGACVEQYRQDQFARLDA
# Beta Lactamase = Beta Lactamase (Pseudomonas aeruginosa, UniProt Q932Y6); assay: BLA reporter interference, concentration series – BLA reporter cells, FRET fluorescence, artefact control for NOD2-RIPK2 interaction inhibitor project, dose response (AID 651552); assay type: functional, cell-based
# [7] = loss of viability in HepG2 cells – cell-based, CellTiter-Glo, cherry-picked, cytotoxicity control for Shn3 inhibitor project, dose response (AID 624134); assay type: functional
# [8] = reduction of Shn3 3'UTR-driven luciferase in osteoblasts – cell-based, Clone20 osteoblasts, firefly luciferase, cherry-picked, dose response (AID 624132); assay type: functional;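 note: firefly luciferase luminescence from reporter carrying the Shn3 3'UTR in osteoblasts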
# Protein RecA = molecular target: T5, Protein RecA (Mycobacterium tuberculosis, UniProt P9WHJ3); assay: Fluorescence Cell-Free Homogeneous Dose Retest to Identify Inhibitors of RecA-Intein Splicing Activity. [Related pubchem assays (depositor defined):AID2097, AID2223, AID489010, AID492950]; assay type: functional
# T5 sequence (P9WHJ3 whole entry): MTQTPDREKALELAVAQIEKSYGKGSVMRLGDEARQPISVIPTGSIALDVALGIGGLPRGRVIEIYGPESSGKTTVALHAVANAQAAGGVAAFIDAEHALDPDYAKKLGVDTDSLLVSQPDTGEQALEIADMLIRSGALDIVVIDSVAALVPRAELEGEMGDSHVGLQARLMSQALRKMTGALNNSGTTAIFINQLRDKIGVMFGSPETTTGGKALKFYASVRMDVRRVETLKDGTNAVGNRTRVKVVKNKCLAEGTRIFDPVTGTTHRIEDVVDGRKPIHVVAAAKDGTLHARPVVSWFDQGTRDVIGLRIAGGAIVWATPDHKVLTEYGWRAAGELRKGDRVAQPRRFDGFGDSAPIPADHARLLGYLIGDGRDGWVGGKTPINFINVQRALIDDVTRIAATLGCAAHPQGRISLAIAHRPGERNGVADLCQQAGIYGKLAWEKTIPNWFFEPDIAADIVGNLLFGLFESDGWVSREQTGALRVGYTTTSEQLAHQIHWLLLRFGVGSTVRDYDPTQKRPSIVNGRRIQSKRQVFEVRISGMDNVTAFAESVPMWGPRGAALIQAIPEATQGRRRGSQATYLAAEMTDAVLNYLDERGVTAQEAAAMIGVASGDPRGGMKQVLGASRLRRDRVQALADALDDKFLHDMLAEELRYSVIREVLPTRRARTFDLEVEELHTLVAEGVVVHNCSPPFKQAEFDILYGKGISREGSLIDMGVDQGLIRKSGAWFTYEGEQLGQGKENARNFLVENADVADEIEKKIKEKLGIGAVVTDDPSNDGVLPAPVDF
# [9] = reduced cellular PGC1a acetyl-lysine signal – cell-based, cherry-picked samples, dose response (AID 720514); assay type: functional;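 note: potency may reflect raised or lowered acetylation signal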
# [10] = molecular target: FAD-linked sulfhydryl oxidase ALR (Homo sapiens, UniProt P55789); assay: ALR-catalysed DTT oxidation blockers – biochemical, H2O2 detection, luminescence, cherry-pick, dose response (AID 493248)
# [11] = molecular target: T6, Replicative DNA helicase DnaB (Mycobacterium tuberculosis, UniProt P9WMR3); assay: DnaB intein splicing inhibitors, dose response, biochemical, cell-free fluorescence (AID 449749); assay type: functional
# T6 sequence (P9WMR3 whole entry): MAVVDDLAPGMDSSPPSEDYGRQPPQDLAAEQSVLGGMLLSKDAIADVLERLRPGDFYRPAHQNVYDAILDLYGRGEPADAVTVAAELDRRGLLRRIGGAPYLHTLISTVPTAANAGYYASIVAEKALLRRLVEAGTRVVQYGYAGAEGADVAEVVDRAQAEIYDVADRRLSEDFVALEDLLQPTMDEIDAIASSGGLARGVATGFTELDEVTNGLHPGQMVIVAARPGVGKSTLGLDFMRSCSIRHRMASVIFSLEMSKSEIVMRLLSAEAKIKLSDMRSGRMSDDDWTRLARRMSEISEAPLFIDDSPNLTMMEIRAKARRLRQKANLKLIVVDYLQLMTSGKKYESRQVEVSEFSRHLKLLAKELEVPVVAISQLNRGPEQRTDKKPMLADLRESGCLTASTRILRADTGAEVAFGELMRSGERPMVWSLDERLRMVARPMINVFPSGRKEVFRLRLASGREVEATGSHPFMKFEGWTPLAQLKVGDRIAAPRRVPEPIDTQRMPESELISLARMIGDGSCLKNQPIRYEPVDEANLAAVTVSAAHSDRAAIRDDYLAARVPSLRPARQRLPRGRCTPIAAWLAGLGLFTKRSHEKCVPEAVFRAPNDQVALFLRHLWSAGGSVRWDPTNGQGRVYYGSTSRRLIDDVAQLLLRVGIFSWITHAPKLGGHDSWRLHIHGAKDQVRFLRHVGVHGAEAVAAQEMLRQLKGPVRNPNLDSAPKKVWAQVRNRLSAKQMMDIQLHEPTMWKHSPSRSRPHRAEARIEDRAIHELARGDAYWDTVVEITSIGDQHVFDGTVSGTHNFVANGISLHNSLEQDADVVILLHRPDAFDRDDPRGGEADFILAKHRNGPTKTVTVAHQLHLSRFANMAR
# [12] = non-specific 3'UTR reporter inhibition in Clone20-Shn3RL – cell-based, Renilla luciferase, cherry-picked, counter-screen for Shn3 inhibitor project, dose response (AID 624133); assay type: functional
# [13] = Fluorescence-based cell-based high throughput dose response assay for inhibitors of the interaction of nucleotide-binding oligomerization domain containing 2 (NOD2) and the receptor-interacting serine-threonine kinase 2 (RIPK2).; assay type: functional; details: Homo sapiens
# [14] = molecular target: T7, Carboxy-terminal domain RNA polymerase II polypeptide A small phosphatase 1 (Homo sapiens, UniProt Q9GZU7); assay: CTDSP1 inhibitors, concentration-response, biochemical, absorbance readout, ultra-high-throughput screen actives (AID 540297); assay type: functional
# T7 sequence (Q9GZU7 whole entry): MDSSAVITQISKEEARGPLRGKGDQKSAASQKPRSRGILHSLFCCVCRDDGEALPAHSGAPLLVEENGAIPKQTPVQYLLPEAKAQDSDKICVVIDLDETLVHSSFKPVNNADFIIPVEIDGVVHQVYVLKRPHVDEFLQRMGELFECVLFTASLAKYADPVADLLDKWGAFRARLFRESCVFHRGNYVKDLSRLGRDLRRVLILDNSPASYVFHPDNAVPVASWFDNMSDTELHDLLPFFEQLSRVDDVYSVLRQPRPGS
# Prothrombin = Prothrombin (Bos taurus, UniProt P00735); assay: thrombin protease inhibitors – biochemical, fluorescence polarization, uHTS hits, dose response (AID 602369); assay type: functional
# [15] = molecular target: 26S proteasome non-ATPase regulatory subunit 14 (Homo sapiens, UniProt O00487); assay: inhibition of proteasome subunit RPN11 – biochemical, fluorescence polarization, uHTS hits, confirmation (AID 602368); assay type: functional
# [16] = molecular target: 72 kDa type IV collagenase (Homo sapiens, UniProt P08253); assay: Dose Response validation of uHTS RPN11 inhibitor hits using a MMP-2 Fluorescence assay.; assay type: functional
# [17] = Trypanosoma cruzi growth suppression in host cells – NIH3T3 host cells, beta-gal luminescence, confirmation (AID 2044); assay type: functional, cell-based;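 note: intracellular parasites grown in NIH/3T3 mouse fibroblasts as host cells; luminescent beta-galactosidase reporter signal from transgenic T. cruzi replicating inside host cells; inhibitors lower the luminescence signal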
# [18] = NIH3T3 cell viability loss – ATP luminescence, mouse fibroblasts, counter-screen, dose response (AID 2010); assay type: functional, cell-based;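 note: cells exposed to compound for about 90 hours before reading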
# Chain of 72 kDa type IV collagenase (P08253 whole entry): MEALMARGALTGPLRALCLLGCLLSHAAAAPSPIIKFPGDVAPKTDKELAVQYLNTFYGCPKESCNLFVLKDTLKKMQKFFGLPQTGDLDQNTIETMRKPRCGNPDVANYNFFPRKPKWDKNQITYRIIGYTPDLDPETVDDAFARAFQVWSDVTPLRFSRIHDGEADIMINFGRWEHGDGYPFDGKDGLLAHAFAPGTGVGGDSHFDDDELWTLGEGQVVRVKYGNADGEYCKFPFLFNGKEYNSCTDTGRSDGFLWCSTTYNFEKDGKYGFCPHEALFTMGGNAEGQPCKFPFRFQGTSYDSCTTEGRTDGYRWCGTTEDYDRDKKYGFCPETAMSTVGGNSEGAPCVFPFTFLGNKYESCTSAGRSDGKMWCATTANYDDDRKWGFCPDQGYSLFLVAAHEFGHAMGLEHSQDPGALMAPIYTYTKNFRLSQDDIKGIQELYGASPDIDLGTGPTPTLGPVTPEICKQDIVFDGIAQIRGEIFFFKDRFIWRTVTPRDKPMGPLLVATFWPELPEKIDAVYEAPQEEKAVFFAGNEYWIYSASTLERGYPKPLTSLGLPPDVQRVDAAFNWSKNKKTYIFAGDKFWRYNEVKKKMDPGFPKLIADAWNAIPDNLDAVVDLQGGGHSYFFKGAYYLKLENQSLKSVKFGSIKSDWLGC
# Chain of 26S proteasome non-ATPase regulatory subunit 14 (O00487 whole entry): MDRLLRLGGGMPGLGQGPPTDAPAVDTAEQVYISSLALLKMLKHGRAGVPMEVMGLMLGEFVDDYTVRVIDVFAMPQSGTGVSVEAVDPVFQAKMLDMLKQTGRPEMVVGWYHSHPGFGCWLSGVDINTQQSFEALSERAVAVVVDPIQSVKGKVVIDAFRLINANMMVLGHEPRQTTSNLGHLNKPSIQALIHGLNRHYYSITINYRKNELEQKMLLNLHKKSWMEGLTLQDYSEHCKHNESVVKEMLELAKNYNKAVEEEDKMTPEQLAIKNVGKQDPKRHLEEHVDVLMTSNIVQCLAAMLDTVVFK
# Chain of Beta Lactamase (Q932Y6 whole entry): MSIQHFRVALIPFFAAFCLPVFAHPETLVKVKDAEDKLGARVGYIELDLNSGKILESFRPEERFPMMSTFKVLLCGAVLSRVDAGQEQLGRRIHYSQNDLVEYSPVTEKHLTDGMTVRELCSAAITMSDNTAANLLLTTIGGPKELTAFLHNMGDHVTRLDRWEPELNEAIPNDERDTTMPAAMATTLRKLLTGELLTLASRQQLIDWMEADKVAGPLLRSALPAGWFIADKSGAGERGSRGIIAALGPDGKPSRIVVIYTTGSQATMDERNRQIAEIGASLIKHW
# Chain of DNA (cytosine-5)-methyltransferase 1 (P26358 whole entry): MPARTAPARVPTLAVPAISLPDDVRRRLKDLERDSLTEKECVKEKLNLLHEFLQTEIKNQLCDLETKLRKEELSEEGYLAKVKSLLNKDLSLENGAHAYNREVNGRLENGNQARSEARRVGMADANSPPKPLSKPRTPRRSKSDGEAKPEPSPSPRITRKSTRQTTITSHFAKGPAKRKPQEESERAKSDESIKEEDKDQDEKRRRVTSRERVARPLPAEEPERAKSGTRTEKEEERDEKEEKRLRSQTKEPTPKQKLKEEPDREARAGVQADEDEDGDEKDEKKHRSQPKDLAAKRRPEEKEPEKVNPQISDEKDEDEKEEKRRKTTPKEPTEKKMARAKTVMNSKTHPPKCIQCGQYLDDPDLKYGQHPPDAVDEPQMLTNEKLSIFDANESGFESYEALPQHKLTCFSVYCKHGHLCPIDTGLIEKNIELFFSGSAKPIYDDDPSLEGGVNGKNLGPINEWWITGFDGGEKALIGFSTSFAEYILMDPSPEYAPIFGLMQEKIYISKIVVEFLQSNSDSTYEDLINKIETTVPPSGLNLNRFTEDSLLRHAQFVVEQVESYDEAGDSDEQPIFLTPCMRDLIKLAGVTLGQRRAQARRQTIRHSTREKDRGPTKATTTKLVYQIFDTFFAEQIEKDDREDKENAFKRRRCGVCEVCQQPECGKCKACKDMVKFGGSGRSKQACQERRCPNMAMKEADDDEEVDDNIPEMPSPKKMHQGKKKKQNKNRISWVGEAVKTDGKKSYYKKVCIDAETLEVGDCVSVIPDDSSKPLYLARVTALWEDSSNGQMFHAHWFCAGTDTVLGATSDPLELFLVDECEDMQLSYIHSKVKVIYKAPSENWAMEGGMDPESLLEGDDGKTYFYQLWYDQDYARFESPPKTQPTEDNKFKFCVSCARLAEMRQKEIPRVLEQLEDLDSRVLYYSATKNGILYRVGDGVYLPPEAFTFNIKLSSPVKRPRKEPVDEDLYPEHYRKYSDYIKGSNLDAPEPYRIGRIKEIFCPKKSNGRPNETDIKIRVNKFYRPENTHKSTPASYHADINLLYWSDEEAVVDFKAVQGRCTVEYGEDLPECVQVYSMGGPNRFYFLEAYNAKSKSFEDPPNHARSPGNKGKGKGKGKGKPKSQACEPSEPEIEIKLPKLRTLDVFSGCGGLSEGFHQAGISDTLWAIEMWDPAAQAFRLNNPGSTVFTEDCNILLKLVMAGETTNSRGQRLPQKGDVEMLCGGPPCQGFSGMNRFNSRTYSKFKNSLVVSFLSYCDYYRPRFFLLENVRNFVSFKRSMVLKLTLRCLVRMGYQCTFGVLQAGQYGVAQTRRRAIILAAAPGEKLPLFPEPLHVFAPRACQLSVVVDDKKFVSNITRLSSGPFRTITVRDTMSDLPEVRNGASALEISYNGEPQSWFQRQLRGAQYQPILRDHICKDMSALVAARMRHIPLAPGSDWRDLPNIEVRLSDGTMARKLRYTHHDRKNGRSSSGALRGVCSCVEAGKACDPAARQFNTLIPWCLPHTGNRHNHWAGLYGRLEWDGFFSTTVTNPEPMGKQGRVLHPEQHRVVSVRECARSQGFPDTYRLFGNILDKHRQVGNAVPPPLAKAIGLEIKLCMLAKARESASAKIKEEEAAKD
# Chain of FAD-linked sulfhydryl oxidase ALR (P55789 whole entry): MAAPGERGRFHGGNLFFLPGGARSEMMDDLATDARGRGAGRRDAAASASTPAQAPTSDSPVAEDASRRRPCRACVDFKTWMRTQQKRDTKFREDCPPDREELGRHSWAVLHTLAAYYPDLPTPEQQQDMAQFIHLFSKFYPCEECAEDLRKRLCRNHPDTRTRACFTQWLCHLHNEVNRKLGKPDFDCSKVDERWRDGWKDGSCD
compound,measurement,setting,value
N=C(N)NCCCS(=O)(=O)Nc1ccc(Nc2c3ccccc3nc3cc([N+](=O)[O-])ccc23)cc1,IC50,[1],57 µM (inactive)
same,IC50,[2],6.83 µM (active)
O=C(Nc1ncc2c(n1)CC(c1ccccc1)CC2=O)c1ccco1 (configuration not stated),AC50,[3],0.201 µM (active)
O=C(Nc1ccc(Cl)c(-c2nc3ccccc3[nH]2)c1)c1cccnc1,AC50,[3],0.788 µM (active)
CSc1nnc(C)c(/C=C/NOCc2cccc(F)c2)n1,IC50,[4],69.9 µM (inactive)
same,IC50,[5],14 µM (active)
COc1cc(-c2nnc(S)n2-c2cccc(C(F)(F)F)c2)cc(OC)c1OC,AC50,[3],10.6 µM (active)
O=C(O)C(c1ccccc1)N1C(=O)/C(=C\c2ccc(-c3ccccc3Cl)o2)SC1=S (configuration not stated),IC50,[2],4.27 µM (active)
same,AC50,[6],15.6 µM (active)
O=C(NCc1ccc2c(c1)OCO2)c1nc(S(=O)(=O)Cc2ccccc2)ncc1Cl,IC50,Beta Lactamase,32.5 µM (inactive)
same,AC50,[7],40.5 µM (active)
same,AC50,[8],6.4 µM (active)
same,EC50,Protein RecA,4.16 µM (active)
same,AC50,[9],21.7 µM (active)
same,AC50,[10],0.505 µM (active)
same,AC50,[11],2.27 µM (active)
same,AC50,[12],21.7 µM (active)
same,IC50,[13],4.89 µM (active)
O=C(NCc1cccc(CNC(=O)C(=O)NCc2ccco2)c1)C(=O)NCc1ccco1,IC50,[14],> 80 µM (inactive)
same,IC50,[1],6.32 µM (active)
Cc1ccsc1/C=N/n1c(S)nnc1-c1cc(-c2ccccc2)[nH]n1,IC50,Prothrombin,77.2 µM (active)
same,IC50,[15],21.1 µM (active)
same,IC50,[16],> 100 µM (inactive)
C=CCn1cc(/C=N/NC(=O)COc2cccc3cccnc23)c2ccccc21,IC50,Prothrombin,39 µM (active)
same,IC50,[15],27.8 µM (active)
same,IC50,[16],> 100 µM (inactive)
C/N=c1\scc(-c2cc(OC)ccc2OC)n1/N=C/c1c(C)[nH]c2ccccc12,IC50,Prothrombin,21.1 µM (active)
same,IC50,[15],23.8 µM (active)
same,EC50,[17],1.64 µM (active)
same,EC50,[18],> 60 µM (not active)
same,IC50,[16],> 100 µM (inactive)
COc1ccc(-c2[nH][nH]c(=O)c2NC(=O)c2ccc([N+](=O)[O-])cc2)cc1,IC50,[4],47.2 µM (active)
same,IC50,[5],65.5 µM (inactive)
O=C(CN1CCN(S(=O)(=O)c2ccc(Br)cc2)CC1)N/N=C/c1ccc(Cl)c([N+](=O)[O-])c1,IC50,Beta Lactamase,48.7 µM (inactive)
same,IC50,[13],1.83 µM (active)
CCNC(=O)O/N=C1\CCCCC1c1ccc([N+](=O)[O-])cc1[N+](=O)[O-] (configuration not stated),IC50,[4],14.4 µM (active)
same,IC50,[5],27.2 µM (active)
